Reference: paper PMC7697888, “Comprehensive Set of Tertiary Complex Structures and Palmitic Acid Binding Provide Molecular Insights into Ligand Design for RXR Isoforms” (International Journal of Molecular Sciences, 2020)

Legend:
RXRγ = molecular target: T1, RXRγ (Homo sapiens, UniProt P48443); assay: Gal4 hybrid reporter gene assay RXRγ; assay type: cell-based; details: HEK293T; at 100 µM concentrations and above
T1 construct: pFA-CMV-hRXRγ-LBD (NR2B3, UniProt entry: P48443-1, aa 229–463); expressed in transfected cells; host or cells: HEK293T
T1 sequence (P48443 229-463): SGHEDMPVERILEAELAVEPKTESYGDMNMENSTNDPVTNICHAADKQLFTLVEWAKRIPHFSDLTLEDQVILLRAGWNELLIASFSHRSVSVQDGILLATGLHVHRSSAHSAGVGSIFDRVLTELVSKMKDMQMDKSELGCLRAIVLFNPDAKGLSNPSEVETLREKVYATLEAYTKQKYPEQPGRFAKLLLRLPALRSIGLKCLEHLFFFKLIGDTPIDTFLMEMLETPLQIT
Procedure: (§1) The Gal4 hybrid reporter gene assays for RXRα, RXRβ and RXRγ were performed as described previously using the Gal4-fusion receptor plasmids pFA-CMV-hRXRα-LBD (NR2B1, UniProt entry: P19793, aa 225–462), pFA-CMV-hRXRβ-LBD (NR2B2, UniProt entry: P28702-1, aa 294–533) and pFA-CMV-hRXRγ-LBD (NR2B3, UniProt entry: P48443-1, aa 229–463), which code for the hinge region and LBD of the canonical RXR isoform. pFR-Luc (Stratagene, San Diego, CA, USA) as the reporter plasmid and pRL-SV40 (Promega, Madison, WI, USA) as the internal control were used. HEK293T cells were grown in DMEM high-glucose medium (supplemented with 10% fetal calf serum (FCS), sodium pyruvate (1 mM), penicillin (100 U/mL) and streptomycin (100 μg/mL)) at 37 °C and 5% CO2, and seeded in 96-well plates (3.0 × 10^4 cells/well) on the day before transfection. Right before transfection, medium was changed to Opti-MEM without supplements and cells were transiently transfected using the Lipofectamine LTX reagent (Invitrogen, Carlsbad, CA, USA) according to the manufacturer’s protocol with pFR-Luc (Stratagene), pRL-SV40 (Promega) and the respective pFA-CMV-hRXR-LBD clone. After 5 h of incubation, medium was changed to Opti-MEM (supplemented with penicillin (100 U/mL) and streptomycin (100 μg/mL)) additionally containing 0.1% DMSO and the respective test compounds or 0.1% DMSO alone as the untreated control. After overnight incubation (12–14 h), cells were assayed for luciferase activity using the Dual-Glo luciferase assay system (Promega) according to the manufacturer’s protocol on a Tecan Spark M10 luminometer (Tecan Deutschland GmbH, Crailsheim, Germany). Each sample was tested in at least three biologically independent repeats in duplicates. Data were normalized for transfection efficiency and cell growth by division of firefly luciferase data by Renilla luciferase data and multiplying by 1000 to obtain relative light units (RLUs). Fold activation denotes the mean RLU of test compounds at a respective concentration divided by the mean RLU of untreated control. […]

RXR = assay: Gal4 hybrid reporter gene assays, competition with bexarotene / antagonist UVI3003 (isoform not specified); assay type: cell-based, human; details: bexarotene 0.1 µM or 1 µM; for effect on bexarotene-induced RXR activation, low concentration: fatty acid 10 µM; for effect on bexarotene-induced RXR activation, higher concentration: fatty acid 100 µM, not statistically significant for all fatty acids on all isoforms
Procedure: as §1

SMILES | RXRγ activation in Gal4 hybrid reporter gene assay (RXRγ) | effect on bexarotene-induced RXR activation, low concentration (RXR) | effect on bexarotene-induced RXR activation, higher concentration (RXR)
CCCCCCCCCCCCCC(=O)O [MA, myristic acid] | activated | tendency to further promote RXR activation | weak competitive behavior
CCCCCCCCCCCCCCCC(=O)O [PA, palmitic acid] | activated | tendency to further promote RXR activation | weak competitive behavior
CCCCCCCCCCCCCCCCCC(=O)O [SA, stearic acid] | activated | tendency to further promote RXR activation | weak competitive behavior
